From US10239957B2, “Peptide containing conjugates for dual molecular delivery of oligonucleotides” (Merck Sharp & Dohme Corp., priority 2013, dated 2019)
Where no end group is shown, it is not given here. [ ]: non-standard residue; d: D form. TGN = not defined here

System: CTNNB1
Test: In vitro DMD assay: mRNA silencing enhancement by peptide conjugates after siRNA-IV treatment
Format: cell-based
Details: primary mouse hepatocytes, siRNA-IV 125 nM baseline
Method: Cryopreserved primary Mouse hepatocytes (Bioreclamation, LLC) were placed into Collagen Type I coated 96-well plates at 25,000 cells per well in serum-containing InVitroGRO CP media (Bioreclamation, LLC) and allowed 5 hours to attach. Media was replaced with InVitroGRO HI media and cells were treated with siRNA-IV at 125 nM [siRNA] for 1 hour. Media was replaced with InVitroGRO HI media and cells were treated for approximately 16 hours with experimental Peptide conjugates at various concentrations to establish a dose-response curve. Peptide conjugates were washed out after 16 hours with InVitroGRO HI media and cells allowed to incubate for an additional 24 hours. Cells were then lysed and mRNA expression of the siRNA target was measured by RT-qPCR (Applied Biosystems Taqman reagents). mRNA silencing activity of each Peptide conjugate was expressed as an enhancement above the baseline activity of 125 nM siRNA-IV alone with respect to the untreated cells and all siRNA target Ct values were normalized to PPIB mRNA for each well (dddCt) and summarized.
The structure of TGN-S-S-peptide is shown below and the activity data is listed in Table 5 (siRNA-IV concentration was kept at […]).

Substance	In vitro dddCt (vs. baseline SCE dose) (Targeted peptide dose 8 nM)	In vitro dddCt (vs. baseline SCE dose) (Targeted peptide dose 40 nM)	In vitro dddCt (vs. baseline SCE dose) (Targeted peptide dose 200 nM)	In vitro dddCt (vs. baseline SCE dose) (Targeted peptide dose 1000 nM)	In vitro dddCt (vs. baseline SCE dose) (Targeted peptide dose 5000 nM)
TGN-S-S-SEQ ID NO: 1784 (D) ([dC]G[dW][dF]G[dE][dI][dE][dE][dL][dI][dE][dE]G[dL][dE][dN][dL][dI][dD][dW]G[dN]G; not fully specified (residue 1); also: TGN conjugated via disulfide at Cys1; listed as Homo sapiens)	0.07	−0.22	−0.57	−1.01	−0.81
TGN-S-S-SEQ ID NO: 1785 (D) ([dC]G[dL][dF]G[dE][dL][dE][dE][dL][dI][dE][dE]G[dL][dE][dN][dL][dI][dD][dW]G[dN]G; not fully specified (residue 1); also: TGN conjugated via disulfide at Cys1; listed as Homo sapiens)	−0.1	−0.44	−1.68	0.84	−2.03
TGN-S-S-SEQ ID NO: 1786 (D) ([dC]G[dL][dF]G[dE][dI][dE][dE][dL][dW][dE][dE]G[dL][dE][dN][dL][dI][dD][dW]G[dN]G; not fully specified (residue 1); also: TGN conjugated via disulfide at Cys1; listed as Homo sapiens)	0.17	0.13	0.06	0.06	0.18
TGN-S-S-SEQ ID NO: 1793 (D) ([dC]G[dL][dL]G[dE][dI][dE][dE][dL][dI][dE][dE]G[dL][dE][dN][dL][dI][dD][dW]G[dN]G; not fully specified (residue 1); also: TGN conjugated via disulfide at Cys1; listed as Homo sapiens)	−0.02	−1.04	−2.36	−2.75	−2.65
TGN-S-S-SEQ ID NO: 1794 (D) ([dC]G[dL][dF]G[dA][dI][dE][dE][dL][dI][dE][dE]G[dL][dE][dN][dL][dI][dD][dW]G[dN]G; not fully specified (residue 1); also: TGN conjugated via disulfide at Cys1; listed as Homo sapiens)	−0.09	−0.8	−2.22	−2.71	−2.61
TGN-S-S-SEQ ID NO: 1795 (D) ([dC]G[dF][dF]G[dE][dI][dE][dE][dL][dI][dE][dE]G[dL][dE][dN][dL][dI][dD][dW]G[dN]G; not fully specified (residue 1); also: TGN conjugated via disulfide at Cys1; listed as Homo sapiens)	−0.1	−0.33	−0.71	0.94	−0.71
TGN-S-S-SEQ ID NO: 1796 (D) ([dC]G[dL][dW]G[dE][dI][dE][dE][dL][dI][dE][dE]G[dL][dE][dN][dL][dI][dD][dW]G[dN]G; not fully specified (residue 1); also: TGN conjugated via disulfide at Cys1; listed as Homo sapiens)	0.05	−0.56	−1.13	−1.98	−1.81
TGN-S-S-SEQ ID NO: 1797 (D) ([dC]G[dL][dF]G[dE][dW][dE][dE][dL][dI][dE][dE]G[dL][dE][dN][dL][dI][dD][dW]G[dN]G; not fully specified (residue 1); also: TGN conjugated via disulfide at Cys1; listed as Homo sapiens)	0	0.41	0.08	0.05	0.24
TGN-S-S-SEQ ID NO: 1798 (D) ([dC]G[dL][dF]G[dE][dF][dE][dE][dL][dI][dE][dE]G[dL][dE][dN][dL][dI][dD][dW]G[dN]G; not fully specified (residue 1); also: TGN conjugated via disulfide at Cys1; listed as Homo sapiens)	−0.09	−0.69	−0.13	−0.26	−0.18
TGN-S-S-SSEQ ID NO: 1799(D) ([dC]G[dL][dF]G[dE][dI][dE][dE][dL][dI][dE][dE]G[dL][dE][dN][dL][dL][dD][dW]G[dN]G; not fully specified (residue 1); also: TGN conjugated via disulfide at Cys1; listed as Homo sapiens)	0.03	−0.45	−1.63	−2.13	−2.22
TGN-S-S-Seq-ID-25 (D) ([dC][dI][dF]G[dA][dI][dA]G[dF][dI][dK][dN][dI][dW][dE]G[dL][dI][dD][dA][dF]; not fully specified (residue 1); also: disulfide-linked to TGN peptide via Cys; listed as Homo sapiens)	−0.06	0.2	−0.13	0.01	−1.72
TGN-S-S-Seq-ID-37 (L) (C(TGN)IFGAIAGFIKNIWKGLIDWWYG; reading uncertain; also: disulfide-linked to TGN peptide via Cys; listed as Homo sapiens)	0.02	0.14	−0.01	−0.19	−0.79
TGN-S-S-Seq-ID-54 (L) (C(TGN)FFGAIWEFIRSILEGLIDGWYGYGRKKRRQRR; reading uncertain; also: disulfide-linked to TGN peptide via Cys; listed as Homo sapiens)	0.03	−0.07	−0.16	−0.03	0.07
TGN-S-S-Seq-ID-55 (L) (C(TGN)GLFHALLHLLHSLWHLLLHAWYGYGRKKRRQRR; reading uncertain; also: disulfide-linked to TGN peptide via Cys; listed as Homo sapiens)	0.11	0.08	0.12	0.05	−0.01
TGN-S-S-Seq-ID-56 (L) (C(TGN)GLFHALLHLLHSLWHLLLHAWYGYGHKKHHQHR; reading uncertain; also: disulfide-linked to TGN peptide via Cys; listed as Homo sapiens)	0.02	0.05	−0.12	−0.08	−0.58
TGN-S-S-Seq-ID-57 (L) (C(TGN)GLFGALLELLESLWKGLLEWYGRKKRRQRR; reading uncertain; also: disulfide-linked to TGN peptide via Cys; listed as Homo sapiens)	0.1	0	0.02	0.1	0.09
